From patent US20260166046A1, “Inhibitors of methionine aminopeptidase-2 and methods of preparation and uses thereof” (Primetime Life Sciences LLC, priority 2022, published 2026)
pIC50: −log10 of the molar value. Read-outs that look alike come from different tables or passages of the source.

Tests used:
[1] = molecular target: T1, Recombinant human MetAP2 (Homo sapiens, UniProt P50579); experiment: MetAP2 fluorescence assay; type: biochemical; conditions: recombinant human MetAP2, H-Met-Gly-Pro-AMC substrate
T1 construct: purchased Bio-Techne/R&D systems
Experimental: MetAP2 Fluorescence Assay
Recombinant human MetAP2 (Bio-Techne/R&D systems) was diluted to 10 μg/mL in the assay buffer (50 mM HEPES, 0.1 mM CoCl2, 100 mM NaCl, pH 7.5). The substrate, H-Met-Gly-Pro-AMC (Bio-Techne/R&D systems), was diluted to 500 μM with 2 μg/mL of the coupling enzyme, recombinant human dipeptidyl peptidase-4 (Bio-Techne/R&D systems), in assay buffer. 50 μL of 10 μg/mL recombinant human METAP2 were loaded into a flat-bottom black 96-well plate (Greiner Bio), and the reaction was initiated by adding 50 μL of the substrate/dipeptidyl peptidase-4 mixture. The reaction mixture was incubated at room temperature for 10 minutes, and the fluorescence was measured for 5 minutes at excitation and emission wavelengths of 380 nm and 460 nm, respectively, in kinetic mode. For IC50determination, 0.5 μL inhibitor solution was added to the reaction mixture. The reaction rates were used to calculate IC50with KaleidaGraph.

[2] = test system: G. lamblia GS; experiment: Trophozoite viability IC50 determination, Giardia assay (ATPLite); type: cell-based; conditions: Giardia duodenalis, read-out: Cell viability values Mean IC50 (nM) G. lamblia GS
Experimental: (§1) Giardia cultures: Trophozoites of G. lamblia isolates WB and GS were grown anaerobically in borosilicate glass screw-cap culture tubes (Fisher Scientific) at pH 7.0 in modified TYI-S-33 medium. The medium was supplemented with 10% heat-inactivated bovine serum (Sigma-Aldrich) and 0.05% bovine bile (Sigma-Aldrich). To attain low-oxygen-tension conditions, the tubes were filled to 85 to 90% of their total volume capacity and incubated without shaking at 37° C. Subcultures (2×10^5 trophozoites per tube) were made three times a week. Detachment of trophozoites for inoculation was achieved by chilling the cultures on ice for 20 min. Culturing and detachment of Metronidazole-resistant G. lamblia Assemblage A 713M3 and assemblage B 1279-M1 trophozoites followed the same protocol, except that the growth medium was supplemented with metronidazole gradually increasing the concentration to 10 μM. Amebae cultures: E. histolytica strain HM1:IMSS trophozoites were grown at 37° C. in TYI-S-33 medium supplemented with penicillin (100 U/mL) and streptomycin sulfate (100 μg/mL). Trophozoites were grown anaerobically in borosilicate tubes and subcultures were made 1-2 times a week. Trophozoites were detached for inoculation by chilling the cultures on ice for 20 minutes.
(§2) Trophozoite viability IC50determination
(§3) Giardia assays: 10 μL giardia trophozoites in growth medium were plated at a density of 10,000 cells/well in sterile 96-well black clear bottom assay plates. Fumagillin and fumagillol derivatives were 1:3 serially diluted from a 1 μM DMSO stock solution and then 100 μL/well were transferred in duplicate to the assay wells. Metronidazole (control) was 1:3 serially diluted in growth medium from a 100 μM stock solution in DMSO. The assay plates were placed in a BD GasPak™ EZ Container System (BD Diagnostics) to create an anaerobic growth environment. The sealed containers were incubated at 37° C. for 72 hr. Following incubation, 70 μL/well of the ATPLite reagent (PerkinElmer) was added to the assay plates for one-step lysis and ATP level detection. The luminescent signals of the assay plates were measured on an EnSpire 2300 plate reader (PerkinElmer). Concentration response titration points for each compound were fitted to a 4-parameters logistic nonlinear regression model using KaleidaGraph, yielding the IC50value and standard error (SE).

[3] = test system: G. lamblia WB; experiment: as above; type: cell-based; conditions: Giardia duodenalis, read-out: Cell viability values Mean IC50 (nM) G. lamblia WB
Experimental: as §1, §2, §3

[4] = test system: E. histolytica HM1: IMSS; experiment: Trophozoite viability IC50 determination, Amebae assay (ATPLite); type: cell-based; conditions: Entamoeba histolytica, read-out: Cell viability values Mean IC50 (nM) E. histolytica HM1: IMSS
Experimental: as §1, §2, §3
Amebae assays: The protocol is identical to that described above except that the trophozoites were plated at a density of 5000 cells/well because of their larger size.

[5] = trophozoites, 72 hr, anaerobic, ATP level

T1 sequence (P50579 whole entry): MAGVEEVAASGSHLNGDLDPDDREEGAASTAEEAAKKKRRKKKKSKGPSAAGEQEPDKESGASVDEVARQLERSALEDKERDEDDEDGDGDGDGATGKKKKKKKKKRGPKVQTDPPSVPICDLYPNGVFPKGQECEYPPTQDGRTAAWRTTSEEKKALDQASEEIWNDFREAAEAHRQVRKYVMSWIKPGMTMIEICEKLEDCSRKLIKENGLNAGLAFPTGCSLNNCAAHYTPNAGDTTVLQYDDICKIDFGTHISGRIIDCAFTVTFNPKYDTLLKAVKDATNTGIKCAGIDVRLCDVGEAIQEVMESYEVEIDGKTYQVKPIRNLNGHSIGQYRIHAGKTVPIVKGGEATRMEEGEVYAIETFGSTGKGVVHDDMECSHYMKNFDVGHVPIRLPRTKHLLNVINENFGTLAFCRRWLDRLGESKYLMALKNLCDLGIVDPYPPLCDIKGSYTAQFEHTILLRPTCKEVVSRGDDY

Compound | pIC50 [1] | IC50 ([2]; 72 h) | IC50 ([3]; 72 h) | IC50 ([4]; 72 h) | IC50 [2, 5] | IC50 [3, 5] | IC50 [4, 5]
CO[C@@H]1[C@H](OC(=O)Nc2ccccc2B(O)O)CC[C@]2(CO2)[C@H]1[C@@]1(C)O[C@@H]1CC=C(C)C [No 19] | > 8.00 | 10.1 to 100 nM | 101 to 1000 nM | 101 to 1000 nM | – | – | –
CO[C@@H]1[C@H](OC(=O)N[C@@H](C)B(O)O)CC[C@]2(CO2)[C@H]1[C@@]1(C)O[C@@H]1CC=C(C)C [No 69] | > 8.00 | 10.1 to 100 nM | > 1000 nM | > 1000 nM | – | – | –
CO[C@@H]1[C@H](OC(=O)N[C@H](CC(C)C)B(O)O)CC[C@]2(CO2)[C@H]1[C@@]1(C)O[C@@H]1CC=C(C)C [No 68] | > 8.00 | 101 to 1000 nM | > 1000 nM | > 1000 nM | – | – | –
CO[C@@H]1[C@H](OC(=O)Nc2ccc3sc(B(O)O)cc3c2)CC[C@]2(CO2)[C@H]1[C@@]1(C)O[C@@H]1CC=C(C)C [No 38] | > 8.00 | > 1000 nM | > 1000 nM | > 1000 nM | – | – | –
CO[C@@H]1[C@H](OC(=O)N[C@@H](CC(C)C)B(O)O)CC[C@]2(CO2)[C@H]1[C@@]1(C)O[C@@H]1CC=C(C)C [No 67] | > 8.00 | 10.1 to 100 nM | 101 to 1000 nM | 101 to 1000 nM | – | – | –
CO[C@@H]1[C@H](OC(=O)Nc2ccc(Cl)c(B(O)O)c2F)CC[C@]2(CO2)[C@H]1[C@@]1(C)O[C@@H]1CC=C(C)C [No 64] | > 8.00 | – | – | – | 101 to 1000 nM | > 1000 nM | > 1000 nM
CO[C@@H]1[C@H](OC(=O)N2CCc3cc(B(O)O)cnc3C2)CC[C@]2(CO2)[C@H]1[C@@]1(C)O[C@@H]1CC=C(C)C [No 41] | > 8.00 | 10.1 to 100 nM | 101 to 1000 nM | > 1000 nM | – | – | –
CO[C@@H]1[C@H](OC(=O)Nc2ccc3c(c2)B(O)OC3)CC[C@]2(CO2)[C@H]1[C@@]1(C)O[C@@H]1CC=C(C)C [No 6] | > 8.00 | < 10 nM | 10.1 to 100 nM | 10.1 to 100 nM | – | – | –
CO[C@@H]1[C@H](OC(=O)Nc2ccc(B(O)O)c(C(C)C)c2)CC[C@]2(CO2)[C@H]1[C@@]1(C)O[C@@H]1CC=C(C)C [No 62] | > 8.00 | 101 to 1000 nM | > 1000 nM | > 1000 nM | – | – | –
CO[C@@H]1[C@H](OC(=O)NCc2cccc(B(O)O)c2)CC[C@]2(CO2)[C@H]1[C@@]1(C)O[C@@H]1CC=C(C)C [No 29] | > 8.00 | 101 to 1000 nM | 101 to 1000 nM | 101 to 1000 nM | – | – | –
CO[C@@H]1[C@H](OC(=O)Nc2ccc(B(O)O)cc2)CC[C@]2(CO2)[C@H]1[C@@]1(C)O[C@@H]1CC=C(C)C [No 17] | > 8.00 | – | – | – | < 10 nM | 10.1 to 100 nM | 10.1 to 100 nM
CO[C@@H]1[C@H](OC(=O)Nc2ccc3c(c2)B(O)OCC3)CC[C@]2(CO2)[C@H]1[C@@]1(C)O[C@@H]1CC=C(C)C [No 14] | > 8.00 | 10.1 to 100 nM | 101 to 1000 nM | 101 to 1000 nM | – | – | –
CO[C@@H]1[C@H](OC(=O)Nc2cc(C#N)cc(B(O)O)c2)CC[C@]2(CO2)[C@H]1[C@@]1(C)O[C@@H]1CC=C(C)C [No 25] | > 8.00 | 101 to 1000 nM | 101 to 1000 nM | > 1000 nM | – | – | –
CO[C@@H]1[C@H](OC(=O)Nc2c(B(O)O)ccnc2Cl)CC[C@]2(CO2)[C@H]1[C@@]1(C)O[C@@H]1CC=C(C)C [No 47] | > 8.00 | 101 to 1000 nM | > 1000 nM | > 1000 nM | – | – | –
CO[C@@H]1[C@H](OC(=O)N2CCc3cc(B(O)O)ccc3C2)CC[C@]2(CO2)[C@H]1[C@@]1(C)O[C@@H]1CC=C(C)C [No 44] | > 8.00 | 10.1 to 100 nM | > 1000 nM | > 1000 nM | – | – | –
CO[C@@H]1[C@H](OC(=O)N2CCC(B(O)O)CC2)CC[C@]2(CO2)[C@H]1[C@@]1(C)O[C@@H]1CC=C(C)C [No 52] | > 8.00 | 10.1 to 100 nM | 101 to 1000 nM | > 1000 nM | – | – | –

Compound | pIC50 [1] | IC50 ([2]; 72 h) | IC50 ([3]; 72 h) | IC50 ([4]; 72 h) | IC50 [2, 5] | IC50 [3, 5] | IC50 [4, 5]
CO[C@@H]1[C@H](OC(=O)Nc2ccc3c(c2)CCOB3O)CC[C@]2(CO2)[C@H]1[C@@]1(C)O[C@@H]1CC=C(C)C [No 13] | > 8.00 | < 10 nM | 10.1 to 100 nM | 101 to 1000 nM | – | – | –
CO[C@@H]1[C@H](OC(=O)Nc2cccc3c2COB3O)CC[C@]2(CO2)[C@H]1[C@@]1(C)O[C@@H]1CC=C(C)C [No 12] | > 8.00 | 10.1 to 100 nM | 101 to 1000 nM | 101 to 1000 nM | – | – | –
CO[C@@H]1[C@H](OC(=O)Nc2cc(C)cc(B(O)O)c2)CC[C@]2(CO2)[C@H]1[C@@]1(C)O[C@@H]1CC=C(C)C [No 28] | > 8.00 | 10.1 to 100 nM | 101 to 1000 nM | 101 to 1000 nM | – | – | –
CO[C@@H]1[C@H](OC(=O)Nc2ccncc2B(O)O)CC[C@]2(CO2)[C@H]1[C@@]1(C)O[C@@H]1CC=C(C)C [No 37] | > 8.00 | 10.1 to 100 nM | > 1000 nM | > 1000 nM | – | – | –
CO[C@@H]1[C@H](OC(=O)Nc2cc(B(O)O)c3occc3c2)CC[C@]2(CO2)[C@H]1[C@@]1(C)O[C@@H]1CC=C(C)C [No 49] | > 8.00 | 10.1 to 100 nM | 101 to 1000 nM | > 1000 nM | – | – | –
CO[C@@H]1[C@H](OC(=O)Nc2cc(C#N)ccc2B(O)O)CC[C@]2(CO2)[C@H]1[C@@]1(C)O[C@@H]1CC=C(C)C [No 24] | > 8.00 | 101 to 1000 nM | 101 to 1000 nM | > 1000 nM | – | – | –
CO[C@@H]1[C@H](OC(=O)Nc2ccc3c(c2)C(C)OB3O)CC[C@]2(CO2)[C@H]1[C@@]1(C)O[C@@H]1CC=C(C)C (stereo partly shown) [No 2] | > 8.00 | – | – | – | < 10 nM | < 10 nM | < 10 nM
CO[C@@H]1[C@H](OC(=O)Nc2cc(B(O)O)cc([N+](=O)[O-])c2)CC[C@]2(CO2)[C@H]1[C@@]1(C)O[C@@H]1CC=C(C)C [No 33] | > 8.00 | 101 to 1000 nM | > 1000 nM | > 1000 nM | – | – | –
CO[C@@H]1[C@H](OC(=O)NCCCB(O)O)CC[C@]2(CO2)[C@H]1[C@@]1(C)O[C@@H]1CC=C(C)C [No 59] | > 8.00 | > 1000 nM | > 1000 nM | > 1000 nM | – | – | –
CO[C@@H]1[C@H](OC(=O)NCc2ccc(B(O)O)cc2)CC[C@]2(CO2)[C@H]1[C@@]1(C)O[C@@H]1CC=C(C)C [No 30] | > 8.00 | 101 to 1000 nM | 101 to 1000 nM | 101 to 1000 nM | – | – | –
CO[C@@H]1[C@H](OC(=O)Nc2cccc(B(O)O)c2)CC[C@]2(CO2)[C@H]1[C@@]1(C)O[C@@H]1CC=C(C)C [No 18] | > 8.00 | 10.1 to 100 nM | 101 to 1000 nM | 101 to 1000 nM | – | – | –
CO[C@@H]1[C@H](OC(=O)NCCB(O)O)CC[C@]2(CO2)[C@H]1[C@@]1(C)O[C@@H]1CC=C(C)C [No 63] | > 8.00 | 10.1 to 100 nM | 101 to 1000 nM | 101 to 1000 nM | – | – | –
CO[C@@H]1[C@H](OC(=O)N(C)c2ccc3c(c2)CCOB3O)CC[C@]2(CO2)[C@H]1[C@@]1(C)O[C@@H]1CC=C(C)C [No 15] | > 8.00 | 101 to 1000 nM | 101 to 1000 nM | 101 to 1000 nM | – | – | –
CO[C@@H]1[C@H](OC(=O)N2CCCC2B(O)O)CC[C@]2(CO2)[C@H]1[C@@]1(C)O[C@@H]1CC=C(C)C (stereo partly shown) [No 60] | > 8.00 | 10.1 to 100 nM | > 1000 nM | > 1000 nM | – | – | –
CO[C@@H]1[C@H](OC(=O)N2CCc3cc(B(O)O)ccc32)CC[C@]2(CO2)[C@H]1[C@@]1(C)O[C@@H]1CC=C(C)C [No 58] | > 8.00 | 101 to 1000 nM | > 1000 nM | > 1000 nM | – | – | –
